Where two headings read alike, the source gives them in different places.
What was measured:
beta-galactosidase = assay: enzyme inhibition, beta-galactosidase; format: biochemical
Protocol: (§1) Rhamnolipid (II) was tested in vitro against a wide array of enzymes.
(§2) The following enzymes were inhibited at the various rhamnolipid concentrations indicated:
(§3) All enzyme assays were done spectrophotometrically by computer linked automatic microplate reader (Labsystem Multiskan) and Diode Array spectrophotometer (Perkin Elmer).

trypsin = assay: enzyme inhibition, trypsin; format: biochemical
Protocol: as §1, §2, §3

P561ek Tyrosine Kinase = P561ek Tyrosine Kinase (Homo sapiens, UniProt P06239); assay: enzyme inhibition, p56lck tyrosine kinase; format: biochemical; conditions: 0.5% DMSO
Protocol: as §1, §3

alpha-glucosidase = assay: enzyme inhibition, alpha-glucosidase; format: biochemical
Protocol: as §1, §3

alkalinephosphatase = assay: enzyme inhibition, alkalinephosphatase; format: biochemical
Protocol: as §1, §3

herpes simplex virus = assay: effect on viruses, herpes simplex; format: cell-based; conditions: concentrations ≤100 ug/ml
Protocol: (§4) Tests were performed according to D. A. Vanden Berghe et al., Inst. Pasteur 84,101 (1986). Rhamnolipid (II) was toxic for VERO cells in concentrations ≥200 ug/ml, and cytotoxic on MT4 cells in concentrations >169.40 ug/ml.

coxsackie B2 virus = assay: effect on viruses, coxsackie B2; format: cell-based; conditions: concentrations ≤100 ug/ml
Protocol: as §4

[1] = system: measles edmonston A virus; assay: effect on viruses, measles edmonston A; format: cell-based; conditions: concentrations ≤100 ug/ml
polio I virus = format: cell-based; conditions: concentrations ≤100 ug/ml
HIV I, strain IIIB = assay: effect on viruses, HIV I strain IIIB; format: cell-based; conditions: Human immunodeficiency virus 1, IIIB; read-out: maximal protection
Protocol: as §4

Candida albicans = assay: minimum inhibitory concentration, Candida albicans; format: cell-based; conditions: in tested medium
Description: (§5) The Minimum inhibitory concentration (MIC) of Rhamnolipid II for Candida albicans, Escherichia coli, Staphylococcus aureus and Pseudomonas aeruginosa was >0.5% in tested medium.

Pseudomonas aeruginosa = assay: minimum inhibitory concentration, Pseudomonas aeruginosa; format: cell-based; conditions: in tested medium
Description: as §5

[2] = system: A431 human epidermal cells; assay: A431 cell DNA synthesis ([3H] thymidine incorporation); format: cell-based; conditions: for inhibition of DNA synthesis: absence of serum growth factors; for activity at 1 µg/mL / activity at 10 µg/mL / activity at 100 µg/mL: Homo sapiens, read-out: DNA synthesis, % placebo
Protocol: A431 cells were cultured for 24 h in microtitter platesm, with serum free medium or in the presence of serum with rhamnolipid. Then, [^3 H] thymidine was added and cells were harvested after 48 h; [^3 H] incorporated into DNA was determined.

CHO cells [3] = format: cell-based
Protocol: After 16h incubation of CHO cells with rhamnolipid, the number of micronuclei inside certain binuclear cells increased up to 4.

[4] = system: T-cells isolated from mouse thymus; assay: T-lymphocyte proliferation + Con A; format: cell-based
Protocol: Procedure: T-cells were isolated from mouse thymus using conventional procedures, and suspended in DMEM. 5×10^6 cells/ml are incubated overnight at 37° C. in the presence of 3 ug/ml Con A to assess stimulation (positive score, related to 10 U/ml rat interleukin-2) or suppression (negative score, related to control) of cell proliferation. Test substance was evaluated under these conditions at 10, 1, 0.1 and 0.01 uM. After overnight incubation, 2 uCi [^3 H] thymidine is added to each well. Cells were harvested after an additional 48 hour incubation, and thymidine incorporation assessed by liquid scintillation counting.

[5] = system: oxazolone-induced delayed type hypersensitivity; assay: immunosuppression (cellular): oxazolone-induced delayed type hypersensitivity; format: in vivo, mouse (ICR, female); conditions: for Swelling (R -L) / ear thickness, Left Ear (No Oxa.) / ear thickness, Right Ear (24 hrs Oxa.): X +/- SEM
Protocol: The shaved abdominal surface of groups of 5 mice were sensitized by application of 0.1 ml of 5% oxazolone. The test substance was administered i.p after 1 hour and then daily for 5 consecutive doses. After an additional 4 days, the animals were challenged by application of 25 ul of 5% oxazolone to the right ear. Twenty-four hours later, ear thickness was measured with a Dyer Model micrometer gauge.
A 50 percent or greater decrease in drug-treated versus control animals is considered significant immunosuppressant activity.

blood count in mouse = conditions: in vivo
Description: Activity of Di-rhamnolipid on Blood Count in Mouse
Blood count after application of di-rhamnolipid

Neurodermitis = assay: clinical treatment of neurodermitis; format: in vivo, human; conditions: twice a day; occlusions up to 24 hours
Protocol: Two patients with Neurodermitis were treated at the beginning of 1992. Rhamnolipid II was applied on affected regions twice a day; occlusions were applied as well (up to 24 hours).
The treatment and monitoring of patients was, again, a "double blind" experiment. Other affected regions where corticosteroids were applied were used for comparison.

CHO cells [6] = system: CHO cells
in vitro = conditions: human, mt4 cells

Sequence of P561ek Tyrosine Kinase (P06239 whole entry): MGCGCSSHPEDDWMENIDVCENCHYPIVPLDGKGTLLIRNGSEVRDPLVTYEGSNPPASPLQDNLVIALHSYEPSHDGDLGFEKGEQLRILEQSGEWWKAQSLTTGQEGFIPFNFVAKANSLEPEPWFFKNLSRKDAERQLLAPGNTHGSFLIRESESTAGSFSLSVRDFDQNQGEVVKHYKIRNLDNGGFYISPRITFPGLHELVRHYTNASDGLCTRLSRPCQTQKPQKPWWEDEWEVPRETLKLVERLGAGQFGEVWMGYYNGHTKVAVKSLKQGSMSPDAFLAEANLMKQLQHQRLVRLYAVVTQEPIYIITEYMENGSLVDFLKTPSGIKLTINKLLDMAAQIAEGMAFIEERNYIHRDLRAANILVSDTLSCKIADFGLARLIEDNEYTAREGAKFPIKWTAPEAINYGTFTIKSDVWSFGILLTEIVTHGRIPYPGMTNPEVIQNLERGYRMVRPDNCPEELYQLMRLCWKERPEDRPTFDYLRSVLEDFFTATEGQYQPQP

CCCCCCCC(CC(=O)O)OC(=O)CC(CCCCCCC)O[C@@H]1O[C@@H](C)[C@H](O)[C@@H](O)[C@H]1O[C@@H]1O[C@@H](C)[C@H](O)[C@@H](O)[C@H]1O (stereo partly drawn) [Rhamnolipid (II), (alpha-L-rhamnopyranosyl-(1,2)alpha-L-rhamnopyranosyl)-3-hydroxydecanoyl-3-hydroxydecanoic acid]
concentration at which the enzyme was inhibited (beta-galactosidase): 100 µg/mL | concentration at which the enzyme was inhibited (trypsin): 1 mg/mL | inhibition at 0.01 µM (P561ek Tyrosine Kinase; 0.01 μM): 4% | inhibition at 1 µM (P561ek Tyrosine Kinase; 1 μM): 3% | inhibition at 100 µM (P561ek Tyrosine Kinase; 100 μM): 11% | effect on enzyme (alpha-glucosidase): no effect | effect on enzyme (alkalinephosphatase): no effect | antiviral activity (herpes simplex virus): no activity | antiviral activity (coxsackie B2 virus): no activity | antiviral activity [1]: no activity | antiviral activity (polio I virus): no activity | Emax (HIV I, strain IIIB): 9% | Minimum inhibitory concentration (MIC) (Candida albicans): > 0.5% | Minimum inhibitory concentration (MIC) (Pseudomonas aeruginosa): > 0.5% | inhibition of DNA synthesis ([2]; 0.1 mg/ml): completely inhibited | inhibition of DNA synthesis ([2]; 0.1 mg/ml, listed as rhamnolipid II): total inhibition | DNA synthesis [3H] Thy inc. ([2]; 10 (v/v) % FCS, 0.001 mg/ml): 35400 +/- 2786 dpm | DNA synthesis [3H] Thy inc. ([2]; 10 (v/v) % FCS, 0.01 mg/ml): 31273 +/- 2028 dpm | DNA synthesis [3H] Thy inc. ([2]; 10 (v/v) % FCS, 0.1 mg/ml): 37055 +/- 1881 dpm | activity at 1 µg/mL ([2]; A-431, 10 (v/v) % FCS, 0.001 mg/ml): 106 ± 8% | activity at 10 µg/mL ([2]; A-431, 10 (v/v) % FCS, 0.01 mg/ml): 94 ± 6% | activity at 100 µg/mL ([2]; A-431, 10 (v/v) % FCS, 0.1 mg/ml): 111 ± 6% | activity at 1 µg/mL ([2]; A-431, serum free medium, 0.001 mg/ml): 91 ± 32% | activity at 10 µg/mL ([2]; A-431, serum free medium, 0.01 mg/ml): 64 ± 19% | activity at 100 µg/mL ([2]; A-431, serum free medium, 0.1 mg/ml): 2 ± 2% | DNA synthesis [3H] Thy inc. ([2]; serum free medium, 0.001 mg/ml): 6935 +/- 2432 dpm | DNA synthesis [3H] Thy inc. ([2]; serum free medium, 0.01 mg/ml): 4885 +/- 1480 dpm | DNA synthesis [3H] Thy inc. ([2]; serum free medium, 0.1 mg/ml): 134 +/- 129 dpm | micronuclei numbers (CHO cells [3]): increased compared to the parallel control specimens | number of micronuclei inside certain binuclear cells (CHO cells [3]): up to 4 | T-cell proliferation ([4]; 10 uM, with Con A): inhibited | in vitro T cell immunosuppression activity ([4]; 10 uM, with ConA): T cell immunosuppression activity | activation at 0.001 µM ([4]; Mus musculus, T-cell, read-out: % Stimulation (+)/Suppression (-)): 4% | activation at 0.01 µM ([4]; Mus musculus, T-cell, 0.01 uM, ConA, 0.5% DMSO, read-out: % Stimulation (+)/Suppression (-)): 7% | activation at 0.1 µM ([4]; Mus musculus, T-cell, 0.1 uM, ConA, 0.5% DMSO, read-out: % Stimulation (+)/Suppression (-)): 7% | activation at 1 µM ([4]; Mus musculus, T-cell, 1 uM, ConA, 0.5% DMSO, read-out: % Stimulation (+)/Suppression (-)): 3% | activation at 10 µM ([4]; Mus musculus, T-cell, 10 uM, ConA, 0.5% DMSO, read-out: % Stimulation (+)/Suppression (-)): -43% | Swelling Inh. % ([5]; IP 0.1 × 5 mg/kg): 16% | Swelling (R -L) ([5]; IP 0.1 × 5 mg/kg): 19.6 +/- 2.9 × 0.01 mm | ear thickness, Left Ear (No Oxa.) ([5]; IP 0.1 × 5 mg/kg): 21.0 +/- 0.8 × 0.01 mm | ear thickness, Right Ear (24 hrs Oxa.) ([5]; IP 0.1 × 5 mg/kg): 40.6 +/- 3.0 × 0.01 mm | Swelling Inh. % ([5]; IP 1 × 5 mg/kg): 22% | Swelling (R -L) ([5]; IP 1 × 5 mg/kg): 20.2 +/- 1.7 × 0.01 mm | ear thickness, Left Ear (No Oxa.) ([5]; IP 1 × 5 mg/kg): 21.0 +/- 0.5 × 0.01 mm | ear thickness, Right Ear (24 hrs Oxa.) ([5]; IP 1 × 5 mg/kg): 41.2 +/- 1.8 × 0.01 mm | Swelling Inh. % ([5]; IP 10 × 5 mg/kg): 19% | Swelling (R -L) ([5]; IP 10 × 5 mg/kg): 20.8 +/- 1.2 × 0.01 mm | ear thickness, Left Ear (No Oxa.) ([5]; IP 10 × 5 mg/kg): 20.8 +/- 0.7 × 0.01 mm | ear thickness, Right Ear (24 hrs Oxa.) ([5]; IP 10 × 5 mg/kg): 41.6 +/- 1.2 × 0.01 mm | Swelling Inh. % ([5]; IP 100 × 5 mg/kg): 26% | Swelling (R -L) ([5]; IP 100 × 5 mg/kg): 19.2 +/- 0.6 × 0.01 mm | ear thickness, Left Ear (No Oxa.) ([5]; IP 100 × 5 mg/kg): 19.0 +/- 0.9 × 0.01 mm | Lymphocyts (blood count in mouse): 53.40 +/- 11.14 | lymphocytes (blood count in mouse): 56.50 +/- 12.02 | nRBC (blood count in mouse): 0 | change in lymphocytes (blood count in mouse; iv, 7.5 mg/kg): decreased | change in neutrophils (blood count in mouse; iv, 7.5 mg/kg): significantly increased | improvements versus corticosteroids (Neurodermitis): observed rapidly, faster than in cases when corticosteroids were applied | occurrence of relapses versus local corticosteroids (Neurodermitis): a bit later | defect of spiralization (CHO cells [6]): not observed | overall structural chromosome damages and number of cells with 2 to 4 aberrations (CHO cells [6]): increased several fold | MCC (in vitro): > 169 µg/mL
